According to patent US9163063B2, “Peptides and nanoparticles for therapeutic and diagnostic applications” (Trustees of Dartmouth College, priority 2009, dated 2015):
Peptide text beside a SMILES is read from it. * marks the point of attachment. Benzoyl(4-Br) = O=C(c1ccc(Br)cc1)*; Myristoyl = CCCCCCCCCCCCCC(=O)*

Key:
MDA-MB-231-WT cells [1] = assay: Apoptosis assay (annexin/PI); type: cell-based; conditions: for apoptosis induced: within 48 h; for induction of apoptosis: 50-200 μM
Experimental: (§1) MDA231-WT and AsPC1 ells were seeded into 6-well plates at a density of 4×10^5/2 ml of RPMI medium per well and grown overnight. Next day cells were treated with GIPC inhibitor peptides in a time dependent (48 h-96 h) and dose dependent manner (50-200 μM). After treatment with definite time, cells were extensively washed with PBS and tested with the Annexin V-FITC Apoptosis Detection Kit (Biovision, Cat. No. #K101-100) per the manufacturer's instructions.

[2] = test system: AsPC1 cells expressing GFP/luciferase; assay: Pancreatic tumor model, intratumoral injections; type: in vivo, female SCID mice; conditions: for pancreatic tumor growth over time compared to control peptides: intratumoral, alternate days, one month
Experimental: (§2) In vivo tumor model experiments using female SCID mice were performed to test the effectiveness of GIPC inhibitor peptides. The pancreatic tumor model was established by injecting 5×10^6 AsPC1 cells expressing GFP/luciferase resuspended in 50 μL of sterile PBS into the mouse right flank. Similarly, the breast tumor growth model was established in mice by injecting 2×10^6 MD-MBA-231-WT cells resuspended in 50 μL of sterile PBS into the mammary fat pad of the female SCID mice. When tumors volumes reached 50-100 mm^3, the GIPC inhibitor peptides and controls were intratumorally injected on alternate days over a period of one month. In order to monitor the pancreatic tumor burden, the mice were non-invasively imaged using the IVIS 200 Bioluminescence Imaging system (Xenon Corp.) before sacrificing. After bioluminescence imaging, the effect of the peptides on tumor growth (weight and volume) and EGFR and IGF-1R expression from tumors collected from different groups were examined. Tumors collected after sacrificing the SCID mice were measured by digital slide calipers using the (½ab^2) formula.

MDA-MB-231-WT cells [3] = assay: MTS cell viability assay (Example 7); type: cell-based; conditions: for reduced cell viability observed: 50-200 μM
Experimental: (§3) To assess the cytotoxic and cell viability effects of GIPC inhibitor peptides, an MTS assay was conducted in pancreatic cancer cells (AsPC1) and breast cancer cells (MDA-MB-231-WT) using CR1023 and CR1166, as well as control peptides (CR1162, CR1164, CR2055 and CR2059) in a dose dependent manner (50-200 μM).

[4] = molecular target: T1, interaction between IGF-1R and GIPC (Homo sapiens, UniProt O14908); assay: Immunoprecipitation for GIPC, immunoblot against IGF-IR in AsPC1 cells; type: cell-based; conditions: for interaction between IGF-1R and GIPC: IP with GIPC antibody (N-19); for protein levels of IGF-IR: in vitro model
T1 construct: endogenous in cells; host or cells: AsPC1
T1 sequence (O14908 1-333): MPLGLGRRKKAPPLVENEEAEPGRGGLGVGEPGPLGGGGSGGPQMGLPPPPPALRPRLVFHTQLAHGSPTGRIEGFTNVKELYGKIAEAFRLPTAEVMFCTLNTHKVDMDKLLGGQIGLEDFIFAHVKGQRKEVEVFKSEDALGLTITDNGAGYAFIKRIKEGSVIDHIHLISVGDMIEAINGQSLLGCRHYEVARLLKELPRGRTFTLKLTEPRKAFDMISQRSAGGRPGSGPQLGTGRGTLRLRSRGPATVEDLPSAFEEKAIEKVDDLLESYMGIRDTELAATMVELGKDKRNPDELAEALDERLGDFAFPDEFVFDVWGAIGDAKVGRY
Experimental: AsPC1 cells were treated and lysate was collected in RIPA buffer. After immunoprecipitation with a GIPC antibody (N-19), western blot analysis was performed.

AsPC1 cells [5] = assay: Apoptosis assay (annexin/PI); type: cell-based, human; conditions: for reduction in live AsPC1 cells / apoptosis induced: within 48 h; for induction of apoptosis: 50-200 μM
Experimental: as §1

EGFR [6] = assay: Western blot of EGFR in MDA-MB-231A-WT cells; type: cell-based; conditions: 48 hours; 50, 100, 200 μM
Experimental: (§4) AsPC1, MDA231-WT cells were grown in a 100 mm tissue culture dish in RPMI medium containing serum, L-glutamine and antibiotics. At 60% confluency cells were treated with GIPC inhibitor peptides in a dose dependent and time dependent manner. Untreated and GIPC inhibitor peptide-treated AsPC1 and MDA231-WT cells were washed thrice with 10 ml of cold PBS, lysed with ice-cold RIPA buffer along with halt and PIC incubated on ice for 10 min, and centrifuged at 4° C. for 10 min. The expression of IGF-1R and EGFR protein was determined in untreated and peptides treated AsPC1 and MD231A cells by Western blot analysis according to standard protocols. Briefly, protein concentration in the cell lysates was measured using Bradford assay kit (Bio-rad). The proteins were loaded on a 10% SDS-PAGE gel for separation and transferred to a membrane. […]
(§5) Since GIPC association with IGF-1R is important for IGF-1R stability, the effects of CR1023 and CR1166 on the expression of both IGF-1R and EGFR were investigated. The levels of EGFR and IGF-1R in pancreatic cancer cells (AsPC1) and breast cancer cells (MDA-MB-231A-WT) were analyzed using Western blot analysis after treatment with GIPC inhibitor peptides or control peptides for 48 hours at different concentrations (50 μM, 100 μM and 200 μM) (FIG. 21, A and B). […]

EGFR [7] = assay: Western blot of EGFR in AsPC1 cells; type: cell-based, human; conditions: 48 hours; 50, 100, 200 μM
Experimental: as §4, §5

IGF-1R [8] = assay: Western blot of IGF-1R in MDA-MB-231A-WT cells; type: cell-based; conditions: 48 hours; 50, 100, 200 μM
Experimental: as §4, §5

[9] = molecular target: T2, co-localization of GIPC and IGF-1R (Homo sapiens, UniProt O14908); assay: Duolink II co-localization of GIPC and IGF-1R in AsPC1 cells; type: cell-based
T2 construct: endogenous in cells; host or cells: AsPC1
T2 sequence (O14908 1-333): T1 sequence (O14908 1-333)
Experimental: Co-localization experiments were performed using a Duolink II Fluorescence kit to visualize the co-localization of GIPC and IGF-1R in control untreated AsPC1 cells (FIG. 23). Red fluorescence indicated the co-localization of GIPC and IGF-1R in AsPC1 cells.

AsPC1 cells [10] = assay: MTS cell viability assay (Example 7); type: cell-based, human; conditions: for reduced cell viability observed: 50-200 μM
Experimental: as §3

IGF-1R [11] = assay: Western blot of IGF-1R in AsPC1 cells; type: cell-based, human; conditions: 48 hours; 50, 100, 200 μM
Experimental: as §4, §5

MD-MBA-231-WT cells = assay: Breast tumor growth model, intratumoral injections; type: in vivo, female SCID mice
Experimental: as §2

SMILES | apoptosis induced (MDA-MB-231-WT cells [1]; 50 μM) | apoptosis induced (MDA-MB-231-WT cells [1]; 200 μM) | induction of apoptosis (MDA-MB-231-WT cells [1]) | pancreatic tumor growth over time compared to control peptides [2] | reduced cell viability observed (MDA-MB-231-WT cells [3]) | interaction between IGF-1R and GIPC [4] | protein levels of IGF-IR [4] | reduction in live AsPC1 cells (AsPC1 cells [5]; 50 μM) | reduction in live AsPC1 cells (AsPC1 cells [5]; 200 μM) | induction of apoptosis (AsPC1 cells [5]) | EGFR expression compared to control peptides (EGFR [6]) | EGFR expression compared to control peptides (EGFR [7]) | IGF-1R expression compared to control peptides (IGF-1R [8]) | red fluorescence (co-localization of GIPC and IGF-1R) compared to control [9] | reduced cell viability observed (AsPC1 cells [10]) | IGF-1R expression compared to control peptides (IGF-1R [11]) | further results
CCCCCCCCCCCCCC(=O)N1CCC[C@H]1C(=O)N[C@@H](CO)C(=O)N[C@@H](CCC(N)=O)C(=O)N[C@@H](CO)C(=O)N[C@@H](CO)C(=O)N[C@@H](CO)C(=O)N[C@@H](CCC(=O)O)C(=O)N[C@@H](C)C(=O)O [CR1023, My-PSQSSSEA] (Myristoyl-PSQSSSEA-OH; C-terminus assumed) | ~30% | ~35% | significant induction of apoptosis | significantly suppressed the pancreatic tumor growth | Reduced cell viability | interfere with the interaction | reduced protein levels of IGF-IR significantly | ~78% | ~62% | significant induction of apoptosis | reduced | reduced | reduced | reduced red fluorescence | Reduced cell viability | reduced | –
CCCCCCCCCCCCCC(=O)N1CCC[C@H]1C(=O)N[C@@H](CO)C(=O)N[C@@H](CCC(N)=O)C(=O)N[C@@H](CO)C(=O)N[C@@H](CCCCNC(=O)c1ccc(Br)cc1)C(=O)N[C@@H](CO)C(=O)N[C@@H](CCCCNC(=O)c1ccc(Br)cc1)C(=O)N[C@@H](C)C(=O)O [CR1166, My-PSQSK(4-Br-ben)SK(4-Br-ben)A] (Myristoyl-PSQSK(Benzoyl(4-Br))SK(Benzoyl(4-Br))A-OH; C-terminus assumed) | ~54% | ~61% | significant induction of apoptosis | significantly suppressed the pancreatic tumor growth | Reduced cell viability | interfere with the interaction | reduced protein levels of IGF-IR significantly | ~53% | ~35% | significant induction of apoptosis | reduced | reduced | reduced | reduced red fluorescence | Reduced cell viability | reduced | EGFR expression in tumor compared to control CR2055 ([2]; pancreatic tumors): significant reduction; IGF-1R expression in tumor compared to control CR2055 ([2]; pancreatic tumors): significant reduction; tumor regression as compared to control DMSO-PBS-treated mice ([2]; pancreatic tumors): ~4.8 times; tumor regression as compared to mice treated with CR1023 ([2]; pancreatic tumors): ~2.3 times; tumor regression as compared to mice treated with CR2055 ([2]; pancreatic tumors): ~3.8 times; tumor regression as compared to mice treated with CR2059 ([2]; pancreatic tumors): ~3.9 times; cell viability reduced more compared to CR1023 (MDA-MB-231-WT cells [3]; at 50 μM, 100 μM, and 200 μM): 30-33%; breast tumor regression as compared to mice treated with CR1023 (MD-MBA-231-WT cells; CR1023 data not shown): ~1.4 times; IGF-1R expression in tumor compared to CR2059 (MD-MBA-231-WT cells; breast tumors): significant reduction; breast tumor growth over time compared to controls (MD-MBA-231-WT cells; intratumoral, alternate days): significantly suppressed breast tumor growth; breast tumor regression as compared to control DMSO-PBS-treated mice (MD-MBA-231-WT cells; mouse, in vivo): ~2.7 times; breast tumor regression as compared to mice treated with CR2055 (MD-MBA-231-WT cells; mouse, in vivo): ~2.1 times; breast tumor regression as compared to mice treated with CR2059 (MD-MBA-231-WT cells; mouse, in vivo): ~2.2 times; apoptosis induced (AsPC1 cells [5]; 50 μM): ~47%; apoptosis induced (AsPC1 cells [5]; 200 μM): ~65%; cell viability reduced more compared to CR1023 (AsPC1 cells [10]; 50 μM): ~50%; cell viability reduced more compared to CR1023 (AsPC1 cells [10]; 100 μM): ~45%; cell viability reduced more compared to CR1023 (AsPC1 cells [10]; 200 μM): ~35%
